According to patent publication US9771334B2, “Triketone compound and preparation method and use thereof” (SHANDONG CYNDA CHEMICAL CO., LTD., priority 2013, dated 2017):

Tests used:
Experiment in all cases: Herbicidal activity, pot culture method (primary and secondary screening test)
Format in all cases: in vivo
Conditions in all cases: primary screening, pot culture, 150 g/ha, sprayed at 3-leaf stage, result 15 days later
echinochloa crusgalli = system: echinochloa crusgalli
Summary of the method: (§1)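 Post-emergence pot test: 3-leaf-stage weeds, tower spray of 0.2 g/L solution (DMF stock, water dilution) at 150 g/ha, greenhouse, inhibition (%) scored at 15 days. Secondary screen at a reduced dose.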

amaranthus retroflexus = system: amaranthus retroflexus
Summary of the method: as §1

setaria viridis = system: setaria viridis
Summary of the method: as §1

abutilon theophrasti = system: abutilon theophrasti
Summary of the method: as §1

eclipta prostrata = system: eclipta prostrata
Summary of the method: as §1

digitaria sanguinalis = system: digitaria sanguinalis
Summary of the method: as §1

SMILES: CCCCn1c(=O)n(-c2ccccc2C)c(=O)c2cc(C(=O)C3=C(O)CC(C)(C)CC3=O)ccc21 [Compound 74]
- herbicidal activity inhibition ratio (%), Echinochloa crusgalli (echinochloa crusgalli): 0%
- herbicidal activity inhibition ratio (%), Amaranthus retroflexus (amaranthus retroflexus): 0%
- herbicidal activity inhibition ratio (%), Setaria viridis (setaria viridis): 10%
- herbicidal activity inhibition ratio (%), Abutilon theophrasti (abutilon theophrasti): 50%
- herbicidal activity inhibition ratio (%), Eclipta prostrata (eclipta prostrata): 0%
- herbicidal activity inhibition ratio (%), Digitaria sanguinalis (digitaria sanguinalis): 0%

SMILES: Cc1ccccc1-n1c(=O)c2cc(C(=O)C3=C(O)CCCC3=O)ccc2n(CC(C)C)c1=O [Compound 75]
- herbicidal activity inhibition ratio (%), Echinochloa crusgalli (echinochloa crusgalli): 0%
- herbicidal activity inhibition ratio (%), Amaranthus retroflexus (amaranthus retroflexus): 20%
- herbicidal activity inhibition ratio (%), Setaria viridis (setaria viridis): 10%
- herbicidal activity inhibition ratio (%), Abutilon theophrasti (abutilon theophrasti): 90%
- herbicidal activity inhibition ratio (%), Eclipta prostrata (eclipta prostrata): 20%
- herbicidal activity inhibition ratio (%), Digitaria sanguinalis (digitaria sanguinalis): 0%

SMILES: Cc1ccccc1-n1c(=O)c2cc(C(=O)C3=C(O)CC(C)(C)CC3=O)ccc2n(CC(C)C)c1=O [Compound 76]
- herbicidal activity inhibition ratio (%), Echinochloa crusgalli (echinochloa crusgalli): 0%
- herbicidal activity inhibition ratio (%), Amaranthus retroflexus (amaranthus retroflexus): 0%
- herbicidal activity inhibition ratio (%), Setaria viridis (setaria viridis): 10%
- herbicidal activity inhibition ratio (%), Abutilon theophrasti (abutilon theophrasti): 20%
- herbicidal activity inhibition ratio (%), Eclipta prostrata (eclipta prostrata): 0%
- herbicidal activity inhibition ratio (%), Digitaria sanguinalis (digitaria sanguinalis): 0%

SMILES: C#CCn1c(=O)n(-c2ccccc2C)c(=O)c2cc(C(=O)C3=C(O)CCCC3=O)ccc21 [Compound 77]
- herbicidal activity inhibition ratio (%), Echinochloa crusgalli (echinochloa crusgalli): 50%
- herbicidal activity inhibition ratio (%), Amaranthus retroflexus (amaranthus retroflexus): 90%
- herbicidal activity inhibition ratio (%), Setaria viridis (setaria viridis): 20%
- herbicidal activity inhibition ratio (%), Abutilon theophrasti (abutilon theophrasti): 90%
- herbicidal activity inhibition ratio (%), Eclipta prostrata (eclipta prostrata): 35%
- herbicidal activity inhibition ratio (%), Digitaria sanguinalis (digitaria sanguinalis): 0%

SMILES: C#CCn1c(=O)n(-c2ccccc2C)c(=O)c2cc(C(=O)C3=C(O)CC(C)(C)CC3=O)ccc21 [Compound 78]
- herbicidal activity inhibition ratio (%), Echinochloa crusgalli (echinochloa crusgalli): 0%
- herbicidal activity inhibition ratio (%), Amaranthus retroflexus (amaranthus retroflexus): 0%
- herbicidal activity inhibition ratio (%), Setaria viridis (setaria viridis): 10%
- herbicidal activity inhibition ratio (%), Abutilon theophrasti (abutilon theophrasti): 0%
- herbicidal activity inhibition ratio (%), Eclipta prostrata (eclipta prostrata): 0%
- herbicidal activity inhibition ratio (%), Digitaria sanguinalis (digitaria sanguinalis): 0%

SMILES: Cc1ccccc1-n1c(=O)c2cc(C(=O)C3=C(O)CCCC3=O)ccc2n(Cc2ccccc2)c1=O [Compound 79]
- herbicidal activity inhibition ratio (%), Echinochloa crusgalli (echinochloa crusgalli): 0%
- herbicidal activity inhibition ratio (%), Amaranthus retroflexus (amaranthus retroflexus): 0%
- herbicidal activity inhibition ratio (%), Setaria viridis (setaria viridis): 10%
- herbicidal activity inhibition ratio (%), Abutilon theophrasti (abutilon theophrasti): 0%
- herbicidal activity inhibition ratio (%), Eclipta prostrata (eclipta prostrata): 0%
- herbicidal activity inhibition ratio (%), Digitaria sanguinalis (digitaria sanguinalis): 0%

SMILES: Cc1ccccc1-n1c(=O)c2cc(C(=O)C3=C(O)CC(C)(C)CC3=O)ccc2n(Cc2ccccc2)c1=O [Compound 80]
- herbicidal activity inhibition ratio (%), Echinochloa crusgalli (echinochloa crusgalli): 0%
- herbicidal activity inhibition ratio (%), Amaranthus retroflexus (amaranthus retroflexus): 0%
- herbicidal activity inhibition ratio (%), Setaria viridis (setaria viridis): 10%
- herbicidal activity inhibition ratio (%), Abutilon theophrasti (abutilon theophrasti): 0%
- herbicidal activity inhibition ratio (%), Eclipta prostrata (eclipta prostrata): 0%
- herbicidal activity inhibition ratio (%), Digitaria sanguinalis (digitaria sanguinalis): 0%

SMILES: COc1cccc(Cn2c(=O)n(-c3ccccc3C)c(=O)c3cc(C(=O)C4=C(O)CC(C)(C)CC4=O)ccc32)c1 [Compound 81]
- herbicidal activity inhibition ratio (%), Echinochloa crusgalli (echinochloa crusgalli): 0%
- herbicidal activity inhibition ratio (%), Amaranthus retroflexus (amaranthus retroflexus): 0%
- herbicidal activity inhibition ratio (%), Setaria viridis (setaria viridis): 10%
- herbicidal activity inhibition ratio (%), Abutilon theophrasti (abutilon theophrasti): 0%
- herbicidal activity inhibition ratio (%), Eclipta prostrata (eclipta prostrata): 0%
- herbicidal activity inhibition ratio (%), Digitaria sanguinalis (digitaria sanguinalis): 0%

SMILES: Cc1ccccc1-n1c(=O)c2c(C)c(C(=O)C3=C(O)CCCC3=O)ccc2n(C)c1=O [Compound 82]
- herbicidal activity inhibition ratio (%), Echinochloa crusgalli (echinochloa crusgalli): 100%
- herbicidal activity inhibition ratio (%), Amaranthus retroflexus (amaranthus retroflexus): 100%
- herbicidal activity inhibition ratio (%), Setaria viridis (setaria viridis): 100%
- herbicidal activity inhibition ratio (%), Abutilon theophrasti (abutilon theophrasti): 100%
- herbicidal activity inhibition ratio (%), Eclipta prostrata (eclipta prostrata): 100%
- herbicidal activity inhibition ratio (%), Digitaria sanguinalis (digitaria sanguinalis): 100%

SMILES: Cc1ccccc1-n1c(=O)c2cc(C(=O)C3=C(O)CCCC3=O)ccc2n(Cc2ccccc2F)c1=O [Compound 83]
- herbicidal activity inhibition ratio (%), Echinochloa crusgalli (echinochloa crusgalli): 50%
- herbicidal activity inhibition ratio (%), Amaranthus retroflexus (amaranthus retroflexus): 0%
- herbicidal activity inhibition ratio (%), Setaria viridis (setaria viridis): 50%
- herbicidal activity inhibition ratio (%), Abutilon theophrasti (abutilon theophrasti): 0%
- herbicidal activity inhibition ratio (%), Eclipta prostrata (eclipta prostrata): 90%
- herbicidal activity inhibition ratio (%), Digitaria sanguinalis (digitaria sanguinalis): 30%

SMILES: COc1cccc(Cn2c(=O)n(-c3ccccc3C)c(=O)c3cc(C(=O)C4=C(O)CCCC4=O)ccc32)c1 [Compound 84]
- herbicidal activity inhibition ratio (%), Echinochloa crusgalli (echinochloa crusgalli): 50%
- herbicidal activity inhibition ratio (%), Amaranthus retroflexus (amaranthus retroflexus): 0%
- herbicidal activity inhibition ratio (%), Setaria viridis (setaria viridis): 10%
- herbicidal activity inhibition ratio (%), Abutilon theophrasti (abutilon theophrasti): 0%
- herbicidal activity inhibition ratio (%), Eclipta prostrata (eclipta prostrata): 80%
- herbicidal activity inhibition ratio (%), Digitaria sanguinalis (digitaria sanguinalis): 25%

SMILES: Cc1ccccc1-n1c(=O)c2cc(C(=O)C3=C(O)CC(C)(C)CC3=O)ccc2n(Cc2ccccc2F)c1=O [Compound 85]
- herbicidal activity inhibition ratio (%), Echinochloa crusgalli (echinochloa crusgalli): 20%
- herbicidal activity inhibition ratio (%), Amaranthus retroflexus (amaranthus retroflexus): 20%
- herbicidal activity inhibition ratio (%), Setaria viridis (setaria viridis): 10%
- herbicidal activity inhibition ratio (%), Abutilon theophrasti (abutilon theophrasti): 0%
- herbicidal activity inhibition ratio (%), Eclipta prostrata (eclipta prostrata): 0%
- herbicidal activity inhibition ratio (%), Digitaria sanguinalis (digitaria sanguinalis): 0%

SMILES: Cc1ccccc1-n1c(=O)c2cc(C(=O)C3=C(O)CCCC3=O)ccc2n(C)c1=S [Compound 86]
- herbicidal activity inhibition ratio (%), Echinochloa crusgalli (echinochloa crusgalli): 85%
- herbicidal activity inhibition ratio (%), Amaranthus retroflexus (amaranthus retroflexus): 0%
- herbicidal activity inhibition ratio (%), Setaria viridis (setaria viridis): 10%
- herbicidal activity inhibition ratio (%), Abutilon theophrasti (abutilon theophrasti): 20%
- herbicidal activity inhibition ratio (%), Eclipta prostrata (eclipta prostrata): 30%
- herbicidal activity inhibition ratio (%), Digitaria sanguinalis (digitaria sanguinalis): 30%

SMILES: Cc1ccccc1-n1c(=O)c2cc(C(=O)C3=C(O)CC(C)(C)CC3=O)ccc2n(C)c1=S [Compound 87, 6-[(2-hydroxy-4,4-dimethyl-6-oxo-1-cyclohexenyl)carbonyl]-1-methyl-2-thio-3-(o-tolyl)-2,3-dihydroxyquinazoline-4(1H)-ketone]
- herbicidal activity inhibition ratio (%), Echinochloa crusgalli (echinochloa crusgalli): 25%
- herbicidal activity inhibition ratio (%), Amaranthus retroflexus (amaranthus retroflexus): 0%
- herbicidal activity inhibition ratio (%), Setaria viridis (setaria viridis): 10%
- herbicidal activity inhibition ratio (%), Abutilon theophrasti (abutilon theophrasti): 0%
- herbicidal activity inhibition ratio (%), Eclipta prostrata (eclipta prostrata): 0%
- herbicidal activity inhibition ratio (%), Digitaria sanguinalis (digitaria sanguinalis): 0%

SMILES: COc1ccccc1-n1c(=O)c2c(C)c(C(=O)C3=C(O)CCCC3=O)ccc2n(C)c1=O [Compound 88]
- herbicidal activity inhibition ratio (%), Echinochloa crusgalli (echinochloa crusgalli): 100%
- herbicidal activity inhibition ratio (%), Amaranthus retroflexus (amaranthus retroflexus): 100%
- herbicidal activity inhibition ratio (%), Setaria viridis (setaria viridis): 100%
- herbicidal activity inhibition ratio (%), Abutilon theophrasti (abutilon theophrasti): 100%
- herbicidal activity inhibition ratio (%), Eclipta prostrata (eclipta prostrata): 100%
- herbicidal activity inhibition ratio (%), Digitaria sanguinalis (digitaria sanguinalis): 100%

SMILES: CCc1ccccc1-n1c(=O)c2cc(C(=O)C3=C(O)CC(C)(C)CC3=O)ccc2n(C)c1=O [Compound 89]
- herbicidal activity inhibition ratio (%), Echinochloa crusgalli (echinochloa crusgalli): 80%
- herbicidal activity inhibition ratio (%), Amaranthus retroflexus (amaranthus retroflexus): 100%
- herbicidal activity inhibition ratio (%), Setaria viridis (setaria viridis): 75%
- herbicidal activity inhibition ratio (%), Abutilon theophrasti (abutilon theophrasti): 100%
- herbicidal activity inhibition ratio (%), Eclipta prostrata (eclipta prostrata): 70%
- herbicidal activity inhibition ratio (%), Digitaria sanguinalis (digitaria sanguinalis): 60%

SMILES: CC1CC(=O)C(C(=O)c2ccc3c(c2)c(=O)n(-c2ccc(Br)cc2)c(=O)n3C)=C(O)C1 (stereo not drawn) [Compound 90]
- herbicidal activity inhibition ratio (%), Echinochloa crusgalli (echinochloa crusgalli): 90%
- herbicidal activity inhibition ratio (%), Amaranthus retroflexus (amaranthus retroflexus): 20%
- herbicidal activity inhibition ratio (%), Setaria viridis (setaria viridis): 85%
- herbicidal activity inhibition ratio (%), Abutilon theophrasti (abutilon theophrasti): 92.5%
- herbicidal activity inhibition ratio (%), Eclipta prostrata (eclipta prostrata): 83%
- herbicidal activity inhibition ratio (%), Digitaria sanguinalis (digitaria sanguinalis): 93%

SMILES: Cc1c(C(=O)C2=C(O)CCCC2=O)ccc2c1c(=O)n(-c1ccccc1C(F)(F)F)c(=O)n2C [Compound 92, 6-[(2-hydroxy-6-oxo-1-cyclohexenyl)carbonyl]-1,5-dimethyl-3-(2-(trifluoromethyl)phenyl)quinazoline-2,4(1H,3H)-dione]
- herbicidal activity inhibition ratio (%), Echinochloa crusgalli (echinochloa crusgalli): 100%
- herbicidal activity inhibition ratio (%), Amaranthus retroflexus (amaranthus retroflexus): 100%
- herbicidal activity inhibition ratio (%), Setaria viridis (setaria viridis): 100%
- herbicidal activity inhibition ratio (%), Abutilon theophrasti (abutilon theophrasti): 100%
- herbicidal activity inhibition ratio (%), Eclipta prostrata (eclipta prostrata): 100%
- herbicidal activity inhibition ratio (%), Digitaria sanguinalis (digitaria sanguinalis): 100%

SMILES: Cc1cccc(C)c1-n1c(=O)c2c(C)c(C(=O)C3=C(O)CCCC3=O)ccc2n(C)c1=O [Compound 93]
- herbicidal activity inhibition ratio (%), Echinochloa crusgalli (echinochloa crusgalli): 100%
- herbicidal activity inhibition ratio (%), Amaranthus retroflexus (amaranthus retroflexus): 100%
- herbicidal activity inhibition ratio (%), Setaria viridis (setaria viridis): 100%
- herbicidal activity inhibition ratio (%), Abutilon theophrasti (abutilon theophrasti): 100%
- herbicidal activity inhibition ratio (%), Eclipta prostrata (eclipta prostrata): 100%
- herbicidal activity inhibition ratio (%), Digitaria sanguinalis (digitaria sanguinalis): 100%

SMILES: Cn1c(=O)n(-c2c(Cl)cccc2Cl)c(=O)c2cc(C(=O)C3=C(O)CC(C)(C)CC3=O)ccc21 [Compound 94]
- herbicidal activity inhibition ratio (%), Echinochloa crusgalli (echinochloa crusgalli): 93%
- herbicidal activity inhibition ratio (%), Amaranthus retroflexus (amaranthus retroflexus): 95%
- herbicidal activity inhibition ratio (%), Setaria viridis (setaria viridis): 95%
- herbicidal activity inhibition ratio (%), Abutilon theophrasti (abutilon theophrasti): 95%
- herbicidal activity inhibition ratio (%), Eclipta prostrata (eclipta prostrata): 98%
- herbicidal activity inhibition ratio (%), Digitaria sanguinalis (digitaria sanguinalis): 88%

SMILES: Cc1cccc(Cl)c1-n1c(=O)c2cc(C(=O)C3=C(O)CCCC3=O)ccc2n(C)c1=O [Compound 95]
- herbicidal activity inhibition ratio (%), Echinochloa crusgalli (echinochloa crusgalli): 100%
- herbicidal activity inhibition ratio (%), Amaranthus retroflexus (amaranthus retroflexus): 100%
- herbicidal activity inhibition ratio (%), Setaria viridis (setaria viridis): 100%
- herbicidal activity inhibition ratio (%), Abutilon theophrasti (abutilon theophrasti): 100%
- herbicidal activity inhibition ratio (%), Eclipta prostrata (eclipta prostrata): 70%
- herbicidal activity inhibition ratio (%), Digitaria sanguinalis (digitaria sanguinalis): 90%

SMILES: Cc1cccc(Cl)c1-n1c(=O)c2cc(C(=O)C3=C(O)CC(C)(C)CC3=O)ccc2n(C)c1=O [Compound 96]
- herbicidal activity inhibition ratio (%), Echinochloa crusgalli (echinochloa crusgalli): 55%
- herbicidal activity inhibition ratio (%), Amaranthus retroflexus (amaranthus retroflexus): 100%
- herbicidal activity inhibition ratio (%), Setaria viridis (setaria viridis): 95%
- herbicidal activity inhibition ratio (%), Abutilon theophrasti (abutilon theophrasti): 95%
- herbicidal activity inhibition ratio (%), Eclipta prostrata (eclipta prostrata): 83%
- herbicidal activity inhibition ratio (%), Digitaria sanguinalis (digitaria sanguinalis): 30%
